Source: US6773893B1, “Human ABC1 promoter and assays based thereon” (The Trustees of Columbia University in the City of New York, priority 2000, dated 2004)
Entries after “also recorded” stand apart in the source; their conditions may differ.

Columns and labels:
[1] = system: LXR; settings: from cited references; cited from earlier work
[2] = system: hABC1 promoter; assay: hABC1 promoter-luciferase reporter in RAW 264.7 cells; assay type: cell-based, mouse; settings: for hABC1 promoter activity compared to basal conditions: 10 μM, Firefly/Renilla luciferase ratio vs ethanol; for hABC1 promoter induction (summary statement): RAW macrophages, upstream promoter (-469 bp)
Experimental: In FIG. 5A a fragment of the hABC1 promoter ([…] to +101 bp) was linked to Firefly luciferase reporter gene. The resulting plasmid was cotransfected with a control reporter plasmid (Renilla luciferase) in the mouse macrophage-like RAW 264.7 cells. Four independent transfections experiments (each in triplicates) were performed. The results are expressed as a ratio between the Firefly and Renilla luciferase activities. Cells were treated with vehicle or 22(R)-Hch (10 μM), 9CRA (10 μM) and 22(R)-Hch (10 μM)+9CRA (10 μM), 24 hours in FBS medium complemented with 10% LPDS. […] Two independent experiments in triplicate were performed according to the protocol described in (a), using a shorter promoter: […] +101 pb. […] The same experiments as (a) were performed using 22(R)-Hch (10 μM), 25-Hch (10 μM), 7K-Ch (10 μM) and 9CRA (10 μM). Three to four independent experiments in duplicate or triplicate were performed. Mann Whitney tests were mean to analyze the difference between “Ethanol” and “Treatment”. In these Figures, ***=P<0.001,*=P<0.05.
(§1) The cell lines were purchased from ATCC (Rockville, Md., USA). The murine RAW 264.7, African green monkey CV-1, and human 293 or HepG2 cell lines were maintained in Dulbecco's modified Eagle's medium (DMEM) with 10% Fetal Bovine Serum (FBS), 100 U/ml penicillin and […] streptomycin. THP-1 cells were maintained in RPMI-1640 containing L-glutamine, 10% heat inactivated FBS, 100 U/ml penicillin and […] streptomycin supplemented with 0.5 mM B-mercaptoethanol. Confluent cells were differentiated with 0.2 mM phorbol 12-myristate 13-acetate (Sigma Chemical Co., St Louis, Mo., USA) in ethanol during 72 hours. Thioglycollate-elicited peritoneal macrophages were isolated from C57 Bl/6 mice as described (31).
(§2) Transfections were performed in 24-wells plates with Lipofectamine reagent (transactivation experiments in CV-1 and 293 cells, FIG. 6-7) or Lipofectamine-Plus reagent (Basal activation experiments in RAW 264.7, FIG. 5) according to the manufacturer's instructions (Life Technologies, Grand Island, N.Y., USA). For basal activation experiments a total of […] of reporter DNA and 0.05 mg of PRL-CMV(Renilla) (Promega Corp., Madison, Wis., USA) per well were used. For transactivation studies we used, per well, 0.025 mg of PRL-CMV, 0.2 mg of reporter DNA and 0.1 mg of each receptors (CMX-hRXRα, CMX-hLXRα, CMV-mLXRβ) or 0.2 mg of pcDNA3. The transfected cells were cultured in lipoprotein deficient serum (LPDS) medium in the presence of […] of 22(R)-hydroxycholesterol (22(R)-HCh), 25-hydroxycholesterol (25-HCh) or 7-ketocholesterol (7-KCh), […] 9-cis retinoic acid (9CRA) (Sigma Chemical Co., St Louis, Mo., USA) or ethanol alone for 24 hours. The luciferase activities were measured using Promega Dual Luciferase assay system. Reporter plasmid used to analyse the activity of hABC1 promoter was constructed by subcloning a 1029 bp PCR fragment of hABC1 promoter (−928 bp +101 bp) into pGL3-Luc basic vector (Promega). […] A shorter promoter (−469 bp to +101 bp) was generated by digestion of this plasmid with Sac1. Where shown, error bars represent the standard deviation.

[3] = system: LXR/hRXRα binding site of the CETP promoter; assay: Luciferase reporter with 3 copies of the LXR responsive element of the CETP promoter in 293 cells; assay type: cell-based, human; settings: for increase in luciferase activity: absence of transfected receptors
Experimental: as §2

[4] = system: hABC1 promoter; assay: hABC1 promoter (-469 bp +101 bp) luciferase reporter in 293 cells with or without LXR/RXR; assay type: cell-based, human; settings: for upregulation of the hABC1 promoter: 293 cells without transfected LXR/hRXR, 10 μM, 24 h
Experimental: as §1, §2

[5] = target: SF1 (Homo sapiens, UniProt Q13285); settings: from cited references; cited from earlier work
SF1, sequence (Q13285 whole entry): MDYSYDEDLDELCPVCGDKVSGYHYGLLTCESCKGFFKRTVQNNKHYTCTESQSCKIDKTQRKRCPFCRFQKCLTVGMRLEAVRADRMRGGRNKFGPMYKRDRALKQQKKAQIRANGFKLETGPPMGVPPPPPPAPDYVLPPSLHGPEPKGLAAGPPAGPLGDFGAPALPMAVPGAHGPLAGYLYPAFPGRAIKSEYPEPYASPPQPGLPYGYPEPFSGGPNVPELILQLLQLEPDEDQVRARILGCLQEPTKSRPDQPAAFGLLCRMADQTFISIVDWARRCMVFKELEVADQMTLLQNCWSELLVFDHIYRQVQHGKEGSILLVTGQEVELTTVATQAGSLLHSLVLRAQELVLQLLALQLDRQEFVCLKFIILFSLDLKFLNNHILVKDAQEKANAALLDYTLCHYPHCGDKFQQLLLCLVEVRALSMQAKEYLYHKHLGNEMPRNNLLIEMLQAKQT

[6] = system: hABC1 mRNA in THP-1 macrophages; assay: Northern blot of ABC1 mRNA in THP-1 macrophages; assay type: cell-based, human; design: dose or concentration left out as unconfirmed; settings: 24 h, vs ethanol
Experimental: as §1

[7] = system: hABC1 promoter; assay: Transactivation of the hABC1 promoter by LXR/RXR in CV-1 cells; assay type: cell-based, human
Experimental: as §2, with “The cell lines were purchased from ATCC (Rockville, Md., USA). The murine RAW 264.7, African green monkey CV-1, and human 293 or HepG2 cell lines were maintained in Dulbecco's modified Eagle's medium (DMEM) with 10% Fetal Bovine Serum (FBS), 100 U/ml penicillin and […] streptomycin. THP-1 cells were maintained in RPMI-1640 containing L-glutamine, 10% heat inactivated FBS, 100 U/ml penicillin and […] streptomycin supplemented with 0.5 mM B-mercaptoethanol. Confluent cells were differentiated with 0.2 mM phorbol 12-myristate 13-acetate (Sigma Chemical Co., St Louis, Mo., USA) in ethanol during 72 hours. Thioglycollate-elicited peritoneal macrophages were isolated from C57 Bl/6 mice as described (31). Transfections” for “Transfections”

Compound	activator of LXR / LXR-RXR [1]	hABC1 promoter activity compared to basal conditions ([2]; RAW 264.7 cells, 24 h)	hABC1 promoter induction (summary statement) [2] [fold]	upregulation of the hABC1 promoter [4] [fold]	activator of SF1 [5]	increase in luciferase activity [3] [fold]	ABC1 mRNA induction [6] [fold]	also measured
C[C@@H](CO)CCC[C@@H](C)[C@H]1CC[C@H]2[C@@H]3CC=C4C[C@@H](O)CC[C@]4(C)[C@H]3CC[C@]12C [27-HCh]	relatively poor activator	–	–	–	–	–	–	–
CC1=C(/C=C/C(C)=C\C=C\C(C)=C\C(=O)O)C(C)(C)CCC1 [9CRA, 9-cis retinoic acid]	–	8 fold	8	3.5	–	–	–	activity compared to non-transfected cells ([3]; LXR transfected): no further increase in activity; effect on hABC1 promoter activity with transfected receptors ([4]; 293 cells transfected with LXRα/hRXRα): no additional effect
CC(C)CCC[C@@H](C)[C@H]1CC[C@H]2[C@@H]3C(=O)C=C4C[C@@H](O)CC[C@]4(C)[C@H]3CC[C@]12C [7-KCh, 7-ketocholesterol]	–	No significant effect; also recorded: poor activator	–	–	–	–	–	hABC1 promoter activity compared to 9CRA alone ([2]; RAW 264.7 cells, sterol in combination with 9CRA (10 μM each), 24 h): 2 fold
C[C@H](CCCC(C)(C)O)[C@H]1CC[C@H]2[C@@H]3CC=C4C[C@@H](O)CC[C@]4(C)[C@H]3CC[C@]12C [25-HCh, 25-hydroxycholesterol]	poor activator	1.5 fold	–	–	good activator	–	–	–
9-cis retinoic acid [9CRA]	–	–	–	–	–	24	2	–
CC(C)CC[C@@H](O)[C@@H](C)[C@H]1CC[C@H]2[C@@H]3CC=C4C[C@@H](O)CC[C@]4(C)[C@H]3CC[C@]12C [22(R)-HCh, 22(R)-hydroxycholesterol]	good activator	7 fold	7	4.5	poor activator	14	2	transactivation of the hABC1 promoter compared to the control with no receptor ([7]; CV-1 cells cotransfected with hRXRα/LXRα): 6 fold; transactivation of the hABC1 promoter compared to the control with no receptor ([7]; CV-1 cells cotransfected with hRXRα/LXRβ): 8 fold; activation of the hABC1 promoter ([7]; CV-1 cells without transfected receptors): 4 fold
